Assay results reported in ChEMBL document CHEMBL3396973, “Synthesis and biological evaluation of new pyrazol-4-ylpyrimidine derivatives as potential ROS1 kinase inhibitors” (Eur J Med Chem, 2015).

How the values were obtained:
[1] = target: T1, Proto-oncogene tyrosine-protein kinase ROS (Homo sapiens, UniProt P08922)
[2] = target: T2, Hepatocyte growth factor receptor (Homo sapiens, UniProt P08581)
[3] = target: T1, Proto-oncogene tyrosine-protein kinase ROS; assay: Inhibition of ROS1 (unknown origin) by HotSpot assay
[4] = target: ALK tyrosine kinase receptor (Homo sapiens, UniProt Q9UM73)
[5] = target: T2, Hepatocyte growth factor receptor; remark: listed apart in the source
[6] = target: T1, Proto-oncogene tyrosine-protein kinase ROS; remark: listed apart in the source
[7] = target: T1, Proto-oncogene tyrosine-protein kinase ROS; remark: listed apart in the source

T2 sequence (P08581 whole entry): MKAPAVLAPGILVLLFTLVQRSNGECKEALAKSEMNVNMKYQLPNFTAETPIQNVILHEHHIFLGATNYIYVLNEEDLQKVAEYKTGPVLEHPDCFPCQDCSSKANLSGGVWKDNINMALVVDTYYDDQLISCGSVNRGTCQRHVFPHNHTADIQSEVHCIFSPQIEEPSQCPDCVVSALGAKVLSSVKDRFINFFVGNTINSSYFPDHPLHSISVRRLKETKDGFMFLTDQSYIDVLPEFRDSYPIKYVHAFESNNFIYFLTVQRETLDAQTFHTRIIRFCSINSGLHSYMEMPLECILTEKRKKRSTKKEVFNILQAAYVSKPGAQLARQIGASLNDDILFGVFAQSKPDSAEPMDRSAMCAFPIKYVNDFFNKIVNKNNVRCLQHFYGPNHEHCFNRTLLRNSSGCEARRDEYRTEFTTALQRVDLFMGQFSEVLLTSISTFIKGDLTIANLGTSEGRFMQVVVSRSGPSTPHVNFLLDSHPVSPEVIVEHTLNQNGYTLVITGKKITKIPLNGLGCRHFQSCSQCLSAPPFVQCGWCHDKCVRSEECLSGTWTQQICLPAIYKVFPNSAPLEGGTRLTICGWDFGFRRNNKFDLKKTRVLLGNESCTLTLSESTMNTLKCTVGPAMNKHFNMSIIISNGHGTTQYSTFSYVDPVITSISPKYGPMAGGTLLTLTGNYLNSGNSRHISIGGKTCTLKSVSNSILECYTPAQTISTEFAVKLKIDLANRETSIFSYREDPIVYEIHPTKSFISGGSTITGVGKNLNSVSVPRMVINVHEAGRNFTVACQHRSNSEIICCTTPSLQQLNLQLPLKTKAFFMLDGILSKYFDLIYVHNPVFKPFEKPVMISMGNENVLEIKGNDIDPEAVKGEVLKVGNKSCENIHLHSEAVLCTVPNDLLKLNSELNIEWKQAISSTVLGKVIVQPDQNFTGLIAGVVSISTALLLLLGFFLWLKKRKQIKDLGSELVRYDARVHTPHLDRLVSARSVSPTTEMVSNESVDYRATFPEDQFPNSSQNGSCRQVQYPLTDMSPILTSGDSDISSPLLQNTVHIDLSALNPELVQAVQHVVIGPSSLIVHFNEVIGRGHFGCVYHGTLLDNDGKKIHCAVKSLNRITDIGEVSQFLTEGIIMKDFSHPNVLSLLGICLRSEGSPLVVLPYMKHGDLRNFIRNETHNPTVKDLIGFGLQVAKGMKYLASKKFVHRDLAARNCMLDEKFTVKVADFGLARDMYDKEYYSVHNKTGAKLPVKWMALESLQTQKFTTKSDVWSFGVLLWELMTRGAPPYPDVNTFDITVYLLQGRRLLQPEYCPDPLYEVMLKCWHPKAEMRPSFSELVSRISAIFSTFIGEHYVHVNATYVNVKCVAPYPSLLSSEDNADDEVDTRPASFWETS
T1 sequence (P08922 whole entry): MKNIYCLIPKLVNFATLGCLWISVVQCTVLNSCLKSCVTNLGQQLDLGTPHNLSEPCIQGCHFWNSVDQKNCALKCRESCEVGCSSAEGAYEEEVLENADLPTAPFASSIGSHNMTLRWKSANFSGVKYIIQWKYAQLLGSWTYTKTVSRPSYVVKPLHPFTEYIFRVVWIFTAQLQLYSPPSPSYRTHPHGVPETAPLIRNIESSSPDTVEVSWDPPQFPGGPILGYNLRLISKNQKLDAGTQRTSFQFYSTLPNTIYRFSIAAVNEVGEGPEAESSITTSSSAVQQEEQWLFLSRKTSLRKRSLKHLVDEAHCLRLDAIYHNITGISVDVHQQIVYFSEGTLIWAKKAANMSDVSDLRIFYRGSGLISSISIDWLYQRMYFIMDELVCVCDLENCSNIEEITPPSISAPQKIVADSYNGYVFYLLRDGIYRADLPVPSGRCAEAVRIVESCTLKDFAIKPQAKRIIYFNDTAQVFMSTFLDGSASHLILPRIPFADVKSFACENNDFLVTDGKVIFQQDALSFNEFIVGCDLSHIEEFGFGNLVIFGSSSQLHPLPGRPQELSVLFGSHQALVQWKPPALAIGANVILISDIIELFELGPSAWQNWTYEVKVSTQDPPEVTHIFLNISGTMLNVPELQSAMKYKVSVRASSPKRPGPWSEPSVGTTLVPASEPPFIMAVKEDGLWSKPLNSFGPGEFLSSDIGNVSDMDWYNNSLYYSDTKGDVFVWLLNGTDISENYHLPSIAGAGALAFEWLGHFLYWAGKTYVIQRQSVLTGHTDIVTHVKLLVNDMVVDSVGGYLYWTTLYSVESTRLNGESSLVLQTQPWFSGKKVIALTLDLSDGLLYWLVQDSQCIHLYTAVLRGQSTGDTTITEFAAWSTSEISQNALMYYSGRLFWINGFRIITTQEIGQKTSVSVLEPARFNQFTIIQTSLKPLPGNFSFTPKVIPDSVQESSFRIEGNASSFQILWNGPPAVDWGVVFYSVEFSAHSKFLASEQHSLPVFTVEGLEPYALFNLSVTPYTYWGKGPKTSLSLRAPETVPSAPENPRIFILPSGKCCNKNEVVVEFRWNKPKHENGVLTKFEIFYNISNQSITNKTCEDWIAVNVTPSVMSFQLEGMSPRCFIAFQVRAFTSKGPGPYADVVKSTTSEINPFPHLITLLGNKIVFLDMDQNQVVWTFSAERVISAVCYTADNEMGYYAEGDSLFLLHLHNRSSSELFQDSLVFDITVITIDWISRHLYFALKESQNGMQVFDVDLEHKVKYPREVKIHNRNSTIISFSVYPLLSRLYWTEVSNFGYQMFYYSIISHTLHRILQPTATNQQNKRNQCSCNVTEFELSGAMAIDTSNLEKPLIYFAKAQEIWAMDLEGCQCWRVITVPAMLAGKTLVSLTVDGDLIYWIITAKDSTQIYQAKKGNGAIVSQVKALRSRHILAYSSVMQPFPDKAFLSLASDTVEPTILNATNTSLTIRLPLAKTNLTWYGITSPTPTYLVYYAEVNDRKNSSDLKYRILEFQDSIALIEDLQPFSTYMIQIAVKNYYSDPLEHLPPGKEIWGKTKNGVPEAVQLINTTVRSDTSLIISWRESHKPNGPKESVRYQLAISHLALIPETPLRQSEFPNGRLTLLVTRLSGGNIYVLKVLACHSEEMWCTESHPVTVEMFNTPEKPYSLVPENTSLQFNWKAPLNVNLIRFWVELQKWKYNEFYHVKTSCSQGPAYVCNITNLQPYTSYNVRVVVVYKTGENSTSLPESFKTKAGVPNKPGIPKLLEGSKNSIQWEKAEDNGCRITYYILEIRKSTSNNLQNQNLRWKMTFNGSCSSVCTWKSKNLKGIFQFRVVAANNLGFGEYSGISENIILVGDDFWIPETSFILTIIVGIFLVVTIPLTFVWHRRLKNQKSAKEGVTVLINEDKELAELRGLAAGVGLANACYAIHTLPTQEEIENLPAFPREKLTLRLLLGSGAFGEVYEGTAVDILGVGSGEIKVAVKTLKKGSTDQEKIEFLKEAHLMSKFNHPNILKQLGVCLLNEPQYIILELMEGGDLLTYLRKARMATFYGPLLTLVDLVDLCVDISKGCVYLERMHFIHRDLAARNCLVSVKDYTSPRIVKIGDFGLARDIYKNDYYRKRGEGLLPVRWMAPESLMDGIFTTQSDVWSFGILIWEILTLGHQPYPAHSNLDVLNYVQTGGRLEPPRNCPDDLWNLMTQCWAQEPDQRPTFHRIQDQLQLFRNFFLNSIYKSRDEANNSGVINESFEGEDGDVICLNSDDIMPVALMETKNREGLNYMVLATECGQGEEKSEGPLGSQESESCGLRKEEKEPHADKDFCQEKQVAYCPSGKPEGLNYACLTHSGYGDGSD

SMILES | IC50 [1] [nM] | IC50 [2] | also measured
COc1cc(C)cc(-c2nn(CC#N)cc2-c2cc(NCCN3CCOCC3)nc(-c3cccnc3)n2)c1 | 148 | Not Active | 
Cc1ncc(-c2ccnc(-c3cccnc3)c2)c(-c2ccc(F)cc2Cl)n1 | 570 |  | 
COc1cc(C)cc(-c2nn(CC#N)cc2-c2cc(NCCCN3CCOCC3)nc(-c3cccnc3)n2)c1 | 88 | Not Active | 
Cc1cc(O)cc(-c2nn(CC#N)cc2-c2cc(NCCCO)nc(-c3cccnc3)n2)c1 | 108 | Not Active | 
COc1cc(C)cc(-c2c(-c3ccnc(-c4ccc(NC(C)=O)cc4)c3)cnn2CC#N)c1 |  |  | IC50 [3]: 6250 nM
COc1cc(C)cc(-c2nn(CC#N)cc2-c2cc(NCC(C)C)nc(-c3cccnc3)n2)c1 | 920 | Not Active | 
COc1ccc(-c2cc(-c3c[nH]nc3-c3cc(C)cc(OC)c3)ccn2)cc1 |  |  | IC50 [3]: 1250 nM
Cc1cc(O)cc(-c2nn(CC#N)cc2-c2cc(NCCN3CCOCC3)nc(-c3cccnc3)n2)c1 | 478 | Not Active | 
Cc1ncc(-c2ccnc(-c3cccnc3)c2)c(-c2ccc(Cl)cc2Cl)n1 | 330 |  | 
Cc1cc(O)cc(-c2nn(CC#N)cc2-c2cc(NC[C@H](C)O)nc(-c3cccnc3)n2)c1 | 1.7 |  | IC50 [4]: 0.6 nM; IC50 [5]: 11 nM
COCCCNc1cc(-c2cnc(C)nc2-c2ccc(F)cc2Cl)nc(-c2ccccc2)n1 |  |  | IC50 [6]: Not Active
COc1cc(C)cc(-c2nn(CC#N)cc2-c2cc(NCCCO)nc(-c3cccnc3)n2)c1 | 119 | Not Active | 
Cc1cc(O)cc(-c2nn(CC#N)cc2-c2cc(NCCCCO)nc(-c3cccnc3)n2)c1 | 24 | Not Active | 
COCCCNc1cc(-c2cnc(C)nc2-c2ccc(Cl)cc2Cl)nc(-c2ccccc2)n1 |  |  | IC50 [6]: Not Active
COc1cc(C)cc(-c2nn(CC#N)cc2-c2cc(NCCCCO)nc(-c3cccnc3)n2)c1 | 56 | Not Active | 
COc1cc(N2CCC(N(C)C)CC2)ccc1Nc1ncc(Cl)c(Nc2ccccc2P(C)(C)=O)n1 |  |  | IC50 [7]: 1.9 nM
COCCCNc1cc(-c2cnc(C)nc2-c2ccc(Cl)cc2Cl)nc(-c2cccnc2)n1 | 357 |  | 
Cc1cc(O)cc(-c2nn(CC#N)cc2-c2cc(NCCCN3CCOCC3)nc(-c3cccnc3)n2)c1 | 183 | Not Active | 
Cc1cc(O)cc(-c2nn(CC#N)cc2-c2cc(NCC(C)C)nc(-c3cccnc3)n2)c1 | 780 | Not Active | 
COCCCNc1cc(-c2cnc(C)nc2-c2ccc(F)cc2Cl)nc(-c2cccnc2)n1 | 1330 |  | 
